Values of other authors in patent publication US8759329B2 (Unimed Pharmaceuticals, LLC, priority 2005, dated 2014).

Key:
protein (SHBG, albumin) [1] = biological target: protein (SHBG, albumin) (Homo sapiens, UniProt P02768); settings: in men
protein (SHBG, albumin) [2] = biological target: T1, protein (SHBG, albumin) (Homo sapiens, UniProt P04278); settings: in men
T1 sequence (P04278 30-402): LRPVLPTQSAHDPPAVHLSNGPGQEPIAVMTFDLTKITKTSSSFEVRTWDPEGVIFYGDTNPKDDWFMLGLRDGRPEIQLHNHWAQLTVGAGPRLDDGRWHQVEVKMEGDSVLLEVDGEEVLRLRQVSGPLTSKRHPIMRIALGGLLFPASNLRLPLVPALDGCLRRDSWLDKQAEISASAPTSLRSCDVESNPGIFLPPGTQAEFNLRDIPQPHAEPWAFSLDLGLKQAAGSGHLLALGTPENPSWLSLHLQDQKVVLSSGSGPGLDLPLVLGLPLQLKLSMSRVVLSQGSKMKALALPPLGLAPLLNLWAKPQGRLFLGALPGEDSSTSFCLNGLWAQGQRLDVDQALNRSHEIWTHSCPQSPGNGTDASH

protein (SHBG, albumin) [3] = settings: circulating testosterone

Sequence of protein (SHBG, albumin) (Homo sapiens, UniProt P02768) (P02768 25-609): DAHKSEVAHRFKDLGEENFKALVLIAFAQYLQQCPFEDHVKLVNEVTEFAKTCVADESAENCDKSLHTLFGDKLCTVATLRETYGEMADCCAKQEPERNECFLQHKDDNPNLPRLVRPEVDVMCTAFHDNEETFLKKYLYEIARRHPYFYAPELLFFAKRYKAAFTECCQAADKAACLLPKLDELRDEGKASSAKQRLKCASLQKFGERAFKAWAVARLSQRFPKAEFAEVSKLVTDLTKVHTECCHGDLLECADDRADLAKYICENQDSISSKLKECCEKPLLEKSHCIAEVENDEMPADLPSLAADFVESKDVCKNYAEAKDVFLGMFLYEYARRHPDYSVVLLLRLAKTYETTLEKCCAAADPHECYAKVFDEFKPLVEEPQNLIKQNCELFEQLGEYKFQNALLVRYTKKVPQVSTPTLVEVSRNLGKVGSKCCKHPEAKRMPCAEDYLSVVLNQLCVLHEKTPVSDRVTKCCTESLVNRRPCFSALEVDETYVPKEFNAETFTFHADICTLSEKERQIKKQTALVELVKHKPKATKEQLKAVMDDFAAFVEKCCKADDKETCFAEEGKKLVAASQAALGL

C[C@]12CC[C@H]3[C@@H](CCC4=CC(=O)CC[C@@]43C)[C@@H]1CC[C@@H]2O [testosterone]
share bound weakly to albumin (protein (SHBG, albumin) [1]): 60%
share of the binding to SHBG (protein (SHBG, albumin) [2]): approximately 40%
bound to protein in the blood (protein (SHBG, albumin) [3]): 98%
